Measurements from US10112978B2, “Peptide and use thereof” (OSAKA UNIVERSITY, priority 2014, dated 2018).
Entries after “also recorded” stand apart in the source; their conditions may differ.

What was measured:
[1] = test system: LPS-primed RAW 264.7 cells; assay: Cytokine production in LPS-primed RAW 264.7 cells (ELISA); format: cell-based, mouse; settings: about 16 hours
Protocol: (§1) RAW 264.7 cells were suspended at 1×10^6 cells/mL in DMEM medium containing 50 ng/mL LPS and 10% FBS, and incubated in a CO2 incubator for 3 hours for cell priming. The cell suspension was centrifugated, the cells were resuspended at 1×10^6 cells/mL in DMEM medium containing 10% FBS, and the cell suspension was added to a 24-well plate at 500 μL/well. An OSK-1 solution was prepared at a 2-fold higher concentration than the final concentration in DMEM medium containing 10% FBS and added to the plate at 500 μL/well. After about 16 hours, the culture supernatant was harvested, and the cytokine concentrations in the supernatant were measured by ELISA.

C3H/HeN mice = assay: Hair-growth effect in shaved mice; format: in vivo
Protocol: The dorsal skin of 8-week-old male C3H/HeN mice in the resting phase of the hair cycle was shaved using a hair clipper and a shaver with caution to avoid damage to the skin. The shaved area was 2×4 cm. To the shaved area, 100 μL of a 0.02% (w/v), 0.1% (w/v) or 0.5% (w/v) OSK-1 solution was applied once daily for 14 days starting from 3 days after the shaving. For the control group, physiological saline was applied, and for the positive control group, 3% (w/v) minoxidil was applied. The day of shaving was designated as Day 0. On Day 3, Day 7, Day 10, Day 14 and Day 17, the percentage of the area of hair regrowth relative to the entire shaved area in each mouse was scored according to the following criteria: 0% was defined as score 0, 20% or less was defined as score 1, 40% or less was defined as score 2, 60% or less was defined as score 3, 80% or less was defined as score 4, and 100% or less was defined as score 5. In addition, 10 strands of newly grown hair in the shaved area of each mouse were pulled out on Day 17, the length of each strand of newly grown hair was measured under a stereomicroscope, and the measured lengths were summed as the hair length (mm) of each animal.

C57/BL6 mice = assay: Adjuvant effect in mice (anti-Ang II antibody titer after Ang II-KLH vaccine); format: in vivo; settings: Ang II-KLH 2 μg/animal + OSK-1 100 μg/animal intracutaneously 3 times at 2-week intervals
Protocol: For the Freund's adjuvant group, complete Freund's adjuvant was used at the first administration, and incomplete Freund's adjuvant was used at the second and third administration. Blood was drawn before the first administration and 2, 4, 6 and 8 weeks after the first administration, and the anti-Ang II antibody titer was measured.
The antibody titer was measured in the same manner as in Example 7.

LPS-primed THP-1 cells = assay: Cytokine production in LPS-primed THP-1 cells (ELISA of culture supernatant); format: cell-based, human
Protocol: as §1, with “Human monocyte cell line THP-1 (JCRB registration number: JCRB0112) was” for “RAW 264.7 cells were”, “RPMI1640” for “DMEM”, “1 μg/mL lipopolysaccharide (LPS)” for “50 ng/mL LPS”
as §1, with “THP-1” for “RAW 264.7”, “RPMI1640” for “DMEM”, “1 μg/mL” for “50 ng/mL”, “An OSK-1 solution was prepared at a 2-fold higher concentration than the final concentration in DMEM medium containing 10% FBS and added to the plate at 500 μL/well.” left out

THP-1 cells = assay: CD86 and CD54 expression in THP-1 cells (flow cytometry, RFI); format: cell-based, human; settings: overnight culture, relative fluorescence intensity
Protocol: THP-1 cells were seeded at a density of 2.0×10^5 cells/mL in 50 mL of RPMI1640 medium containing 10% FBS and 0.05 mM mercaptoethanol in a 75-cm^2 flask, and precultured for 48 hours.
The precultured THP-1 cells were harvested by centrifugation and suspended at 2.0×10^6 cells/mL in RPMI1640 medium containing 10% FBS and 0.05 mM mercaptoethanol, and the cell suspension was added to a 24-well plate at 500 μL/well. Test peptides were separately dissolved in the same medium as above, and 500 μL of each of the solutions was added to separate wells containing the cell suspension.
After overnight culture, the cells were harvested by centrifugation and washed twice with PBS containing 0.1% BSA (FACS buffer). The cells were then dispersed in 600 μL of FACS buffer containing 0.01% human γ-globulin solution (Sigma, G2388), and incubated at 4° C. for 10 minutes for blocking of Fc receptors.
After that, the cell suspension was divided into three 180-μL aliquots in 1.5-mL tubes, the tubes were centrifuged, and the cell pellets were prepared for the reaction with antibodies. To the cell pellets, FITC-labeled antibody solutions separately diluted to appropriate concentrations in FACS buffer were added in a volume of 50 μL, and incubation was performed at 4° C. for 30 minutes. The antibodies used were CD86 antibody (Pharmingen; Cat#555657), CD54 antibody (Dako; Cat# F7143) and isotype control (Mouse IgG) antibody (Dako; Cat#X0927). After the 30-minute incubation, the cells were harvested by centrifugation and washed twice with FACS buffer. The cells harvested by centrifugation were dispersed in 200 μL of FACS buffer containing 0.625 μg/mL propidium iodide, and the expression levels of the cell surface antigens on 1×10^4 viable cells were measured by flow cytometry. Forward and side scatter gating was not used for the analysis, and the relative fluorescence intensity (RFI) was calculated from the measured mean fluorescence intensities (MFI) by the following formula. […]
When the viability of the non-treated control cells (vehicle treatment cells) was 90% or more, the test was considered valid. In the case where the cell viability at a particular sample concentration used in the test was lower than 50%, the data of the CD54 level at the concentration was excluded from the evaluation.

[2] = compared with alum or the CpG nucleotide

## ELKLIFLHRLKRLRKRLKRK (Ac-ELKLIFLHRLKRLRKRLKRK-NH2) [OSK-1]
[1]
  production of the cytokines (IL-1β, IL-18, TNFα and IL-6): induced the production of the cytokines in the LPS-primed RAW 264.7 cells in an OSK-1 concentration dependent manner
C3H/HeN mice; 0.5% OSK-1 group, Day 17, compared with 3% minoxidil group
  hair length: almost comparable to those in the 3% minoxidil group
C3H/HeN mice; 0.5% OSK-1 group, compared with 3% minoxidil group
  hair regrowth score: almost comparable to those in the 3% minoxidil group
C3H/HeN mice; 100 μL of 0.02%, 0.1% or 0.5% (w/v) solution on shaved dorsal skin once daily for 14 days
  hair growth: promote hair growth in a concentration dependent manner
C57/BL6 mice
  anti-Ang II antibody titer: increase in the anti-Ang II antibody titer was observed; also recorded: smaller than that in the Freund's adjuvant (FA) group, but comparable to that in the alum group
LPS-primed THP-1 cells; about 16 hours, ELISA
  production of the cytokines (IL-1β, IL-18, TNFα and IL-6 concentrations in the culture supernatant): induce the production of the cytokines in the LPS-primed THP-1 cells in an OSK-1 concentration dependent manner
LPS-primed THP-1 cells; [2]
  production of IL-1β: more strongly induced
  production of TNFα: more strongly induced
THP-1 cells
  expression of CD54: strongly induced; also recorded: comparable or superior to that of muramyl dipeptide (MDP); also recorded: more highly active for inducing CD54 expression than SR-07 and SR-08
  expression of CD86: strongly induced; also recorded: comparable or superior to that of muramyl dipeptide (MDP)
